The values that follow come from patent publication US20040228948A1, “Increasing the concentration of conjugated linoleic acid isomers in the milk fat and/or tissue fat of ruminants” (priority 2003, published 2004).

The subject of one assay is lactating Holstein cows. As to the kind of experiment: Example 2 feeding trial: milk fatty acid composition. It is filed as in vivo. The conditions noted are these: FIGS. 4 and 5, monensin with safflower oil.
For another assay, the system named is dairy cows. To be noted: 24 mg/kg of dietary dry matter, 28-day period; increase from 0.8%; cited from earlier work.
A further assay relates to mouse DMBA model. The conditions noted are these: synthetically prepared mixture of the CLA isomers; cited from earlier work.
The test system of assay [1] is DMBA-induced mammary tumors in rats. The conditions noted are these: 0.05 g CLA/100 g of diet; cited from earlier work.

Excerpt for lactating Holstein cows: Twenty-eight primiparous and 34 multiparous lactating Holstein cows were used in a randomized complete block design with repeated measures. Animals were blocked according to parity and DIM. Cows within each block were then randomly assigned to one of six treatment diets: (1) Control diet (CTL); (2) Control diet including safflower oil supplemented at 6% of DM (SAFF); (3) Control diet including safflower oil supplemented at 6% of DM plus Vitamin E supplemented at 150 IU/kg DM (SAFF/E); (4) Control diet including safflower oil supplemented at 6% of DM plus monensin supplemented at 24 ppm of DM (SAFF/M); (5) Control diet including safflower oil supplemented at 6% of DM plus Vitamin E supplemented at 150 IU/kg DM plus monensin supplemented at 24 ppm of DM (SAFF/M/E); (6) Control diet including flaxseed oil supplemented at 6% of DM plus Vitamin E supplemented at 150 IU/kg DM (FLAX/E). […] Feed intake was recorded daily and adjusted to maintain 5 to 10% orts. […] Milk yield was recorded daily. […] A portion of milk from each cow was preserved with potassium dichromate and analyzed for protein, fat, lactose, and somatic cell count at the Alberta Agriculture, Food and Rural Development Central Milk Testing Laboratory (Edmonton, Alberta, Canada). […] The data were analyzed as a randomized complete block design with repeated measures using MIXED procedure of SAS version 8:3 (SAS Institute, Cary, N.C.).

Consider `CC[C@@]1([C@@H]2O[C@@H]([C@H]3O[C@@](O)(CO)[C@H](C)C[C@@H]3C)C[C@@H]2C)CC[C@H]([C@]2(C)CC[C@]3(C[C@H](O)[C@@H](C)[C@@H]([C@@H](C)[C@@H](OC)[C@H](C)C(=O)O)O3)O2)O1` [monensin], for which the “persistence of effect on CLA and trans 18:1” value in the assay on lactating Holstein cows was “consistent across the two-month period”. Further, the “CLA in milk fat” value with dairy cows was 1.3 % of milk fat.
Consider Conjugated linoleic acid [CLA], for which, in the assay with mouse DMBA model, the “papillomas compared to the control mice” value was “about one-half”. In addition, the “number of mammary tumors” value in assay [1] is listed as “reduction”.
